Assay results from the NIST ThermoML archive (doi:10.1016/j.jct.2006.01.008).
Numbers after ± are expanded uncertainties.

Test: mn = molality of the nth substance listed, in mol/kg
Settings: Liquid

O=[N+]([O-])[O-].[Li+] [lithium nitrate] + CO
Settings | mass density [kg/m3]
298.15 K, 124 kPa, m1 = 0.1551 | 794.38 ± 0.23
298.15 K, 125 kPa, m1 = 0.2943 | 800.98 ± 0.23
298.15 K, 254 kPa, m1 = 0.8904 | 826.51 ± 0.21
298.15 K, 4856 kPa, m1 = 0.1551 | 798.86 ± 0.3
298.15 K, 5035 kPa, m1 = 0.2943 | 805.54 ± 0.3
298.15 K, 5745 kPa, m1 = 0.8904 | 831.27 ± 0.28
298.15 K, 10235 kPa, m1 = 0.2943 | 810.19 ± 0.37
298.15 K, 10235 kPa, m1 = 0.8904 | 835.02 ± 0.33
298.15 K, 11542 kPa, m1 = 0.1551 | 804.92 ± 0.39
298.15 K, 15247 kPa, m1 = 0.2943 | 814.48 ± 0.43
298.15 K, 15625 kPa, m1 = 0.8904 | 839.35 ± 0.39
298.15 K, 16024 kPa, m1 = 0.1551 | 808.79 ± 0.45
298.15 K, 19745 kPa, m1 = 0.1551 | 811.89 ± 0.5
298.15 K, 20056 kPa, m1 = 0.2943 | 818.43 ± 0.49
298.15 K, 20856 kPa, m1 = 0.8904 | 843.37 ± 0.44
298.15 K, 25158 kPa, m1 = 0.2943 | 822.44 ± 0.55
298.15 K, 25656 kPa, m1 = 0.8904 | 846.91 ± 0.49
298.15 K, 25856 kPa, m1 = 0.1551 | 816.76 ± 0.58
298.15 K, 30142 kPa, m1 = 0.1551 | 820.02 ± 0.63
298.15 K, 30235 kPa, m1 = 0.2943 | 826.24 ± 0.61
298.15 K, 30254 kPa, m1 = 0.8904 | 850.16 ± 0.54
298.15 K, 35626 kPa, m1 = 0.8904 | 853.78 ± 0.59
298.15 K, 35751 kPa, m1 = 0.2943 | 830.16 ± 0.67
298.15 K, 35785 kPa, m1 = 0.1551 | 824.09 ± 0.69
298.15 K, 39875 kPa, m1 = 0.2943 | 832.95 ± 0.71
298.15 K, 39897 kPa, m1 = 0.1551 | 826.91 ± 0.74
298.15 K, 39957 kPa, m1 = 0.8904 | 856.57 ± 0.62
298.27 K, 205 kPa, m1 = 3.614 | 928.48 ± 0.14
298.27 K, 5001 kPa, m1 = 3.614 | 931.92 ± 0.15
298.27 K, 10011 kPa, m1 = 3.614 | 935.38 ± 0.17
298.27 K, 15005 kPa, m1 = 3.614 | 938.69 ± 0.19
298.27 K, 19984 kPa, m1 = 3.614 | 941.89 ± 0.21
298.27 K, 25008 kPa, m1 = 3.614 | 945.02 ± 0.22
298.27 K, 30003 kPa, m1 = 3.614 | 948.03 ± 0.23
298.27 K, 35001 kPa, m1 = 3.614 | 950.96 ± 0.25
298.27 K, 40010 kPa, m1 = 3.614 | 953.79 ± 0.26
298.28 K, 189 kPa, m1 = 1.803 | 863.5 ± 0.18
298.28 K, 205 kPa, m1 = 0.5393 | 811.38 ± 0.22
298.28 K, 4985 kPa, m1 = 0.5393 | 815.76 ± 0.28
298.28 K, 4986 kPa, m1 = 1.803 | 867.42 ± 0.22
298.28 K, 9983 kPa, m1 = 1.803 | 871.31 ± 0.27
298.28 K, 9995 kPa, m1 = 0.5393 | 820.13 ± 0.35
298.28 K, 14986 kPa, m1 = 1.803 | 875.06 ± 0.31
298.28 K, 15005 kPa, m1 = 0.5393 | 824.3 ± 0.41
298.28 K, 19989 kPa, m1 = 1.803 | 878.65 ± 0.35
298.28 K, 19996 kPa, m1 = 0.5393 | 828.26 ± 0.47
298.28 K, 24989 kPa, m1 = 1.803 | 882.11 ± 0.39
298.28 K, 24994 kPa, m1 = 0.5393 | 832.06 ± 0.52
298.28 K, 29989 kPa, m1 = 1.803 | 885.44 ± 0.42
298.28 K, 29991 kPa, m1 = 0.5393 | 835.71 ± 0.58
298.28 K, 34990 kPa, m1 = 1.803 | 888.67 ± 0.46
298.28 K, 34996 kPa, m1 = 0.5393 | 839.23 ± 0.63
298.28 K, 39995 kPa, m1 = 0.5393 | 842.62 ± 0.68
298.28 K, 39997 kPa, m1 = 1.803 | 891.8 ± 0.49
323.15 K, 215 kPa, m1 = 0.8904 | 804.21 ± 0.23
323.15 K, 321 kPa, m1 = 0.2943 | 777.56 ± 0.25
323.15 K, 412 kPa, m1 = 0.1551 | 770.76 ± 0.26
323.15 K, 5026 kPa, m1 = 0.8904 | 809.05 ± 0.29
323.15 K, 5087 kPa, m1 = 0.2943 | 782.63 ± 0.32
323.15 K, 5784 kPa, m1 = 0.1551 | 776.58 ± 0.34
323.15 K, 9859 kPa, m1 = 0.1551 | 780.81 ± 0.41
323.15 K, 10214 kPa, m1 = 0.8904 | 814.03 ± 0.36
323.15 K, 10862 kPa, m1 = 0.2943 | 788.49 ± 0.41
323.15 K, 15038 kPa, m1 = 0.2943 | 792.54 ± 0.47
323.15 K, 15864 kPa, m1 = 0.8904 | 819.19 ± 0.43
323.15 K, 16173 kPa, m1 = 0.1551 | 787.05 ± 0.5
323.15 K, 19786 kPa, m1 = 0.1551 | 790.45 ± 0.55
323.15 K, 20247 kPa, m1 = 0.8904 | 823 ± 0.48
323.15 K, 20742 kPa, m1 = 0.2943 | 797.81 ± 0.55
323.15 K, 25168 kPa, m1 = 0.2943 | 801.7 ± 0.61
323.15 K, 25632 kPa, m1 = 0.8904 | 827.45 ± 0.54
323.15 K, 26297 kPa, m1 = 0.1551 | 796.26 ± 0.64
323.15 K, 30058 kPa, m1 = 0.8904 | 830.92 ± 0.59
323.15 K, 30685 kPa, m1 = 0.2943 | 806.29 ± 0.68
323.15 K, 31035 kPa, m1 = 0.1551 | 800.23 ± 0.7
323.15 K, 35027 kPa, m1 = 0.2943 | 809.7 ± 0.73
323.15 K, 35214 kPa, m1 = 0.8904 | 834.74 ± 0.65
323.15 K, 35748 kPa, m1 = 0.1551 | 803.97 ± 0.76
323.15 K, 39867 kPa, m1 = 0.1551 | 807.06 ± 0.82
323.15 K, 39867 kPa, m1 = 0.8904 | 837.98 ± 0.69
323.15 K, 40002 kPa, m1 = 0.2943 | 813.4 ± 0.79
323.23 K, 206 kPa, m1 = 3.614 | 908.05 ± 0.15
323.23 K, 211 kPa, m1 = 0.5393 | 788.49 ± 0.24
323.23 K, 234 kPa, m1 = 1.803 | 842.01 ± 0.2
323.23 K, 4982 kPa, m1 = 3.614 | 911.88 ± 0.17
323.23 K, 4988 kPa, m1 = 1.803 | 846.4 ± 0.25
323.23 K, 4989 kPa, m1 = 0.5393 | 793.5 ± 0.31
323.23 K, 9987 kPa, m1 = 3.614 | 915.71 ± 0.2
323.23 K, 9991 kPa, m1 = 0.5393 | 798.45 ± 0.38
323.23 K, 10005 kPa, m1 = 1.803 | 850.8 ± 0.3
323.23 K, 14993 kPa, m1 = 3.614 | 919.41 ± 0.23
323.23 K, 14999 kPa, m1 = 0.5393 | 803.13 ± 0.45
323.23 K, 15005 kPa, m1 = 1.803 | 854.96 ± 0.35
323.23 K, 19987 kPa, m1 = 3.614 | 922.95 ± 0.25
323.23 K, 19992 kPa, m1 = 1.803 | 858.94 ± 0.4
323.23 K, 19999 kPa, m1 = 0.5393 | 807.57 ± 0.51
323.23 K, 24991 kPa, m1 = 3.614 | 926.36 ± 0.27
323.23 K, 24995 kPa, m1 = 1.803 | 862.77 ± 0.44
323.23 K, 24997 kPa, m1 = 0.5393 | 811.8 ± 0.58
323.23 K, 29993 kPa, m1 = 0.5393 | 815.84 ± 0.64
323.23 K, 29998 kPa, m1 = 3.614 | 929.67 ± 0.29
323.23 K, 30014 kPa, m1 = 1.803 | 866.46 ± 0.48
323.23 K, 34988 kPa, m1 = 0.5393 | 819.71 ± 0.7
323.23 K, 34989 kPa, m1 = 3.614 | 932.86 ± 0.31
323.23 K, 34999 kPa, m1 = 1.803 | 869.98 ± 0.52
323.23 K, 39993 kPa, m1 = 3.614 | 935.96 ± 0.32
323.23 K, 39995 kPa, m1 = 0.5393 | 823.45 ± 0.75
323.23 K, 39997 kPa, m1 = 1.803 | 873.39 ± 0.56
348.15 K, 381 kPa, m1 = 0.1551 | 746.07 ± 0.28
348.15 K, 409 kPa, m1 = 0.8904 | 781.31 ± 0.25
348.15 K, 425 kPa, m1 = 0.2943 | 753.31 ± 0.27
348.15 K, 5068 kPa, m1 = 0.1551 | 751.95 ± 0.36
348.15 K, 5124 kPa, m1 = 0.2943 | 759.07 ± 0.35
348.15 K, 5124 kPa, m1 = 0.8904 | 786.59 ± 0.32
348.15 K, 10572 kPa, m1 = 0.2943 | 765.41 ± 0.44
348.15 K, 10865 kPa, m1 = 0.8904 | 792.73 ± 0.4
348.15 K, 10875 kPa, m1 = 0.1551 | 758.86 ± 0.46
348.15 K, 15038 kPa, m1 = 0.1551 | 763.56 ± 0.53
348.15 K, 15324 kPa, m1 = 0.2943 | 770.66 ± 0.52
348.15 K, 15326 kPa, m1 = 0.8904 | 797.27 ± 0.47
348.15 K, 19875 kPa, m1 = 0.1551 | 768.75 ± 0.6
348.15 K, 20125 kPa, m1 = 0.2943 | 775.7 ± 0.59
348.15 K, 20875 kPa, m1 = 0.8904 | 802.64 ± 0.54
348.15 K, 25412 kPa, m1 = 0.8904 | 806.8 ± 0.6
348.15 K, 25632 kPa, m1 = 0.2943 | 781.14 ± 0.67
348.15 K, 26038 kPa, m1 = 0.1551 | 774.93 ± 0.7
348.15 K, 30057 kPa, m1 = 0.2943 | 785.25 ± 0.73
348.15 K, 30587 kPa, m1 = 0.8904 | 811.29 ± 0.66
348.15 K, 31412 kPa, m1 = 0.1551 | 779.95 ± 0.77
348.15 K, 35231 kPa, m1 = 0.8904 | 815.1 ± 0.72
348.15 K, 35748 kPa, m1 = 0.1551 | 783.73 ± 0.84
348.15 K, 35942 kPa, m1 = 0.2943 | 790.36 ± 0.82
348.15 K, 39511 kPa, m1 = 0.2943 | 793.25 ± 0.86
348.15 K, 39784 kPa, m1 = 0.1551 | 787.04 ± 0.89
348.15 K, 40005 kPa, m1 = 0.8904 | 818.78 ± 0.77
